The text below walks through data of US9561220B2, “Group of alkaloids, the novel autophagic enhancers for treatment of cancers and neurodegenerative conditions thereof” (Macau University of Science and Technology, priority 2014, dated 2017).

What is called IC50 is the concentration that inhibits the measured activity by half.

For the experiment, the system named is panel of human cancer cells (HeLa, MCF-7, HepG2, Hep3B, H1299, A549, PC3). The experiment can be described thus: cells. The format is cell-based. The note with it: Homo sapiens, 72 h, read-out: mean IC50 value (cell cytotoxicity). As for the experimental part: The test compounds of liensinine, isoliensinine, dauricine, cepharanthine, hernandezine and thalidezine were dissolved in DMSO at a final concentration of 100 mmol/L and stored at −20° C. Cytotoxicity was assessed using the 3-(4,5-dimethylthiazol-2-yl)-2,5-diphenyltetrazolium bromide assay as described previously. 4000-8000 HeLa (human cervical cancer), MCF-7 (human breast cancer), HepG2 (human liver cancer), Hep3B (human liver cancer), H1299 (human lung cancer), A549 (human lung cancer), PC3 (human prostate cancer) and LO2 (human normal liver) cells were seeded on 96-well plates per well. After overnight pre-incubation, the cells were exposed to different concentrations of liensinine, isoliensinine, dauricine, cepharanthine, hernandezine and thalidezine (0.039-100 μmol/L) for 3 days. Specifically, the following concentrations are used for all of the above alkaloids: […], 0.039 μmol/L. Subsequently, 10 μL of MTT reagents was added to each well and incubated at 37° C. for 4 hours followed by the addition of 100 μL solubilization buffer (10% SDS in 0.01 mol/L HCl) and overnight incubation. Absorbance at 585 nm was determined from each well on the following day. The percentage of cell viability was calculated using the following formula: Cell viability (%)=Cells number treated/Cells number DMSO control×100. Data was obtained from three independent experiments.

As for `COc1ccc2cc1Oc1ccc(cc1)C[C@H]1c3c(cc4c(c3Oc3cc5c(cc3OC)CCN(C)[C@@H]5C2)OCO4)CCN1C` [cepharanthine], the IC50 lay within 4.52 to 61.8 µM.
